In US8044079B2, “Substituted oxindole derivatives, medicaments containing said derivatives and use thereof” (Abbott GmbH & Co. KG, priority 2005, dated 2011) one finds Ki data, which are given here for 18 compounds.

For the assay, the target named is T1, human vasopressin V1b receptor (Homo sapiens, UniProt P47901).
T1 construct: expressed in transfected cells; host or cells: CHO-K1 (cell line hV1b_3H2_CHO), membrane preparation
T1 sequence (P47901 1-424): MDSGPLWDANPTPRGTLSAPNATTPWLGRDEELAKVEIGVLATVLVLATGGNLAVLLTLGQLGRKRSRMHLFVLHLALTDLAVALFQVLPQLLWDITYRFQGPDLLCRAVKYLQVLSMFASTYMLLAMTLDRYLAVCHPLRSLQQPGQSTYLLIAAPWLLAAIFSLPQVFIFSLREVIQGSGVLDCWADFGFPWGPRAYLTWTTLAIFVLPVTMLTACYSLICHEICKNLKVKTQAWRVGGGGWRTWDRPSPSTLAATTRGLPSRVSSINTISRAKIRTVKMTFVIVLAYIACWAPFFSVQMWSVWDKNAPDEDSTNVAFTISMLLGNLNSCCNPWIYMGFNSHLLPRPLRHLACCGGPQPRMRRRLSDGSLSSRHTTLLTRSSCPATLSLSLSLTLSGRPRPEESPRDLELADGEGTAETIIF
The experiment in a line: Vasopressin V1b receptor binding test. The conditions noted are these: membranes of CHO-K1 cells with human V1b receptor, displacement of 1.5 nM 3H-AVP; for compounds with more than one stereogenic center the diastereomer with greater affinity. In outline:
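Affinity constants (Ki) came from nonlinear regression of triplicate scintillation counts after filtration separated bound from free radioligand. Compounds competed at human V1b membranes for 60 min, room temperature, in pH 7.4 tris/MgCl2/BSA buffer with 2% DMSO; 1 μM AVP defined nonspecific binding.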

`COc1ccc(S(=O)(=O)N2C(=O)C(c3cc(CN4CCNCC4)ccc3OC)(N3CCCC3c3ccccn3)c3cc(Cl)ccc32)cc1` (stereo not drawn) [Example 126, 5-Chloro-1-(4-methoxybenzenesulfonyl)-3-(2-methoxy-5-piperazin-1-ylmethylphenyl)-3-(2-pyridin-2-yl-pyrrolidin-1-yl)-1,3-dihydroindol-2-one] had an inhibition constant Ki of 100 to 1000 nM.
The compound `COc1ccc(S(=O)(=O)N2C(=O)C(c3ccc(CN4CCN(CCO)CC4)cc3OC)(N3CCC[C@H]3c3ncco3)c3cc(Cl)ccc32)cc1` (stereo partly drawn) [Example 127, 5-Chloro-3-{4-[4-(2-hydroxyethyl)piperazin-1-ylmethyl]-2-methoxyphenyl}-1-(4-methoxybenzenesulfonyl)-3-((S)-2-oxazol-2-yl-pyrrolidin-1-yl)-1,3-dihydroindol-2-one] yielded an inhibition constant (Ki) below 10 nM.
Compound `COc1ccc(S(=O)(=O)N2C(=O)C(N[C@@H](C)c3ncco3)(c3cc(CN4CCN(C)CC4)ccc3OC)c3cc(Cl)ccc32)cc1` (stereo partly drawn) [Example 128, 5-Chloro-1-(4-methoxybenzenesulfonyl)-3-[2-methoxy-5-(4-methylpiperazin-1-ylmethyl)phenyl]-3-((S)-1-oxazol-2-yl-ethylamino)-1,3-dihydroindol-2-one] registered a Ki below 10 nM.
Regarding `CNCc1ccc(OC)c(C2(NCc3ncco3)C(=O)N(S(=O)(=O)c3ccc(OC)cc3)c3ccc(Cl)cc32)c1` (stereo not drawn) [Example 129, 5-Chloro-1-(4-methoxybenzenesulfonyl)-3-(2-methoxy-5-methylaminomethylphenyl)-3-[(oxazol-2-ylmethyl)amino]-1,3-dihydroindol-2-one], the inhibitory constant (Ki) was in the range of 10 to 100 nM.
In turn, `COc1ccc(S(=O)(=O)N2C(=O)C(c3cc(CNCC(F)(F)F)ccc3OC)(N3CCC[C@H]3c3ncco3)c3cc(Cl)ccc32)cc1` (stereo partly drawn) [Example 130, 5-Chloro-1-(4-methoxybenzenesulfonyl)-3-{2-methoxy-5-[(2,2,2-trifluoroethylamino)methyl]phenyl}-3-((S)-2-oxazol-2-yl-pyrrolidin-1-yl)-1,3-dihydroindol-2-one] returned a Ki of 10 to 100 nM.
As for `CCNCc1ccc(C2(N3CCC[C@H]3c3ncco3)C(=O)N(S(=O)(=O)c3ccc(OC)cc3)c3ccc(Cl)cc32)c(OC)c1` (stereo partly drawn) [Example 131, 5-Chloro-3-(4-ethylaminomethyl-2-methoxyphenyl)-1-(4-methoxybenzenesulfonyl)-3-((S)-2-oxazol-2-yl-pyrrolidin-1-yl)-1,3-dihydroindol-2-one], the figure is 10 to 100 nM.
The figure for `CCCNCc1ccc(OC)c(C2(N3CCCC3c3nccs3)C(=O)N(S(=O)(=O)c3ccc(OC)cc3)c3ccc(Cl)cc32)c1` (stereo not drawn) [Example 132, 5-Chloro-1-(4-methoxybenzenesulfonyl)-3-(2-methoxy-5-propylaminomethylphenyl)-3-(2-thiazol-2-yl-pyrrolidin-1-yl)-1,3-dihydroindol-2-one] is 10 to 100 nM; for `COc1ccc(S(=O)(=O)N2C(=O)C(N[C@@H](C)c3ncco3)(c3cc(CN(C)C)ccc3OC)c3cc(Cl)ccc32)cc1` (stereo partly drawn) [Example 133, 5-Chloro-3-(5-dimethylaminomethyl-2-methoxyphenyl)-1-(4-methoxybenzenesulfonyl)-3-((S)-1-oxazol-2-yl-ethylamino)-1,3-dihydroindol-2-one] it is 10 to 100 nM; for `CCCNCc1ccc(OC)c(C2(N[C@@H](C)c3ncco3)C(=O)N(S(=O)(=O)c3ccc(OC)cc3)c3ccc(Cl)cc32)c1` (stereo partly drawn) [Example 134, 5-Chloro-1-(4-methoxybenzenesulfonyl)-3-(2-methoxy-5-propylaminomethylphenyl)-3-((S)-1-oxazol-2-yl-ethylamino)-1,3-dihydroindol-2-one] it is 10 to 100 nM.
As to `COc1ccc(S(=O)(=O)N2C(=O)C(N[C@@H](C)c3ncco3)(c3cc(CN4CCNCC4)ccc3OC)c3cc(Cl)ccc32)cc1` (stereo partly drawn) [Example 135, 5-Chloro-1-(4-methoxybenzenesulfonyl)-3-(2-methoxy-5-(piperazin-1-ylmethyl)phenyl)-3-((S)-1-oxazol-2-yl-ethylamino)-1,3-dihydroindol-2-one], the Ki was below 10 nM.
As for `COc1ccc(S(=O)(=O)N2C(=O)C(c3ccc(CNC(C)C)cc3OC)(N3CCC[C@H]3c3ncco3)c3cc(Cl)ccc32)cc1` (stereo partly drawn) [Example 136, 5-Chloro-3-[4-(isopropylaminomethyl)-2-methoxyphenyl]-1-(4-methoxybenzenesulfonyl)-3-((S)-2-oxazol-2-yl-pyrrolidin-1-yl)-1,3-dihydroindol-2-one], the figure is 10 to 100 nM; as for `COc1ccc(S(=O)(=O)N2C(=O)C(c3ccc(CNCCO)cc3OC)(N3CCC[C@H]3c3ncco3)c3cc(Cl)ccc32)cc1` (stereo partly drawn) [Example 137, 5-Chloro-3-{4-[(2-hydroxyethylamino)methyl]-2-methoxyphenyl}-1-(4-methoxybenzenesulfonyl)-3-((S)-2-oxazol-2-yl-pyrrolidin-1-yl)-1,3-dihydroindol-2-one], 10 to 100 nM; as for `COc1ccc(S(=O)(=O)N2C(=O)C(c3ccc(CN4CCNC(=O)C4)cc3OC)(N3CCC[C@H]3c3ncco3)c3cc(Cl)ccc32)cc1` (stereo partly drawn) [Example 138, 5-Chloro-1-(4-methoxybenzenesulfonyl)-3-[2-methoxy-4-(3-oxopiperazin-1-ylmethyl)phenyl]-3-((S)-2-oxazol-2-yl-pyrrolidin-1-yl)-1,3-dihydroindol-2-one], 10 to 100 nM.
On to `COc1ccc(S(=O)(=O)N2C(=O)C(c3cc(CNC(C)(C)C)ccc3OC)(N3CCC[C@H]3c3ncco3)c3cc(Cl)ccc32)cc1` (stereo partly drawn) [Example 139, 5-Chloro-3-[5-(tert-butylaminomethyl)-2-methoxyphenyl]-1-(4-methoxybenzenesulfonyl)-3-((S)-2-oxazol-2-yl-pyrrolidin-1-yl)-1,3-dihydroindol-2-one], for which the Ki is 10 to 100 nM.
As for `COc1ccc(S(=O)(=O)N2C(=O)C(N[C@@H](C)c3ncco3)(c3cc(CNCCO)ccc3OC)c3cc(Cl)ccc32)cc1` (stereo partly drawn) [Example 140, 5-Chloro-3-{5-[(2-hydroxyethylamino)methyl]-2-methoxyphenyl}-1-(4-methoxybenzenesulfonyl)-3-((S)-1-oxazol-2-yl-ethylamino)-1,3-dihydroindol-2-one], the figure is below 10 nM; as for `COc1ccc(CN2CCN(C)CC2)cc1C1(N2CCC[C@H]2c2ncco2)C(=O)N(S(=O)(=O)c2ccc(OC(F)(F)F)cc2)c2ccc(Cl)cc21` (stereo partly drawn) [Example 141, 5-Chloro-3-[2-methoxy-5-(4-methylpiperazin-1-ylmethyl)phenyl]-3-((S)-2-oxazol-2-yl-pyrrolidin-1-yl)-1-(4-trifluoromethoxybenzenesulfonyl)-1,3-dihydroindol-2-one], 100 to 1000 nM; as for `COc1ccc(S(=O)(=O)N2C(=O)C(c3cc(CN4CCN(CCO)CC4)ccc3OC)(N3CCC[C@H]3c3ncco3)c3cc(C#N)ccc32)cc1` (stereo partly drawn) [Example 142, 5-Cyano-3-{5-[4-(2-hydroxyethyl)piperazin-1-ylmethyl]-2-methoxyphenyl}-1-(4-methoxybenzenesulfonyl)-3-((S)-2-oxazol-2-yl-pyrrolidin-1-yl)-1,3-dihydroindol-2-one], below 10 nM.
The figure for `COc1ccc(S(=O)(=O)N2C(=O)C(c3cc(CN4CCNC(=O)C4)ccc3OC)(N3CCC[C@H]3c3ncco3)c3cc(C#N)ccc32)cc1` (stereo partly drawn) [Example 143, 5-Cyano-1-(4-methoxy-benzenesulfonyl)-3-[2-methoxy-5-(3-oxo-piperazin-1-ylmethyl)phenyl]-3-((S)-2-oxazol-2-yl-pyrrolidin-1-yl)-1,3-dihydroindol-2-one] is below 10 nM.

As usually defined, the Ki is a measure of affinity in units of concentration, obtained from inhibition or displacement. Higher therefore signals lower affinity.
